Source: US8247211B2, “Glycopeptide antibiotics” (American Cyanamid Company, priority 2001, dated 2012)

Assays:
Test in all cases: In vitro antibacterial evaluation: minimum inhibitory concentration (MIC), broth dilution method
Assay type in all cases: cell-based
Enterococcus sp. = conditions: broth dilution, 5×10^5 CFU/mL, 18 hours at 35° C.
Method: (§1) The minimum inhibitory concentration (MIC), the lowest concentration of the antibiotic which inhibits growth of the test organism, is determined by the broth dilution method using Muller-Hinton II […] (Baltimore Biological Laboratories) following the recommendations of the National Committee for Clinical Laboratory Standards [Methods for dilution antimicrobial susceptibility tests for bacteria that grow aerobically, approved standard M7-A2, National Committee for Clinical Laboratory Standards, Villanova, Pa].
(§2) An inoculum level of 5×10^5 CFU/mL, and a range of antibiotic concentrations (64-0.06 μg/mL) is used. […] The test organisms include a spectrum of Gram-positive bacteria comprised of Staphylococcus sp., Streptococcus sp. and Enterococcus sp. These organisms include recent clinical isolates that are resistant to methicillin, penicillin and/or vancomycin.

Escherichia coli = conditions: 5×10^5 CFU/mL, 18 hours at 35° C.
Method: as §1, §2

Staphylococcus sp. = conditions: for MIC Staphylococcus aureus (ATCC 29213): strain ATCC 29213; for MIC Staphylococcus aureus (GC 1131): strain GC 1131; for MIC Staphylococcus aureus (GC 3051): strain GC 3051; for MIC Staphylococcus aureus (GC 3053): strain GC 3053; for MIC Staphylococcus aureus (GC 4541): strain GC 4541; for MIC Staphylococcus aureus (GC 4542): strain GC 4542; for MIC Staphylococcus aureus (GC 4544): strain GC 4544; for MIC Staphylococcus aureus (GC 4545): strain GC 4545
Method: as §1, §2

Streptococcus sp. = conditions: broth dilution, 5×10^5 CFU/mL, 18 hours at 35° C.
Method: as §1, §2

[1] = broth dilution, 5×10^5 CFU/mL, 18 hours at 35° C.
[2] = broth dilution, 18 hours at 35° C.
[3] = strain GC 4543, broth dilution, 18 hours at 35° C.
[4] = strain GC 4546, broth dilution, 18 hours at 35° C.
[5] = strain GC 4547, broth dilution, 18 hours at 35° C.
[6] = strain GC 4548, broth dilution, 18 hours at 35° C.
[7] = strain GC 4549, broth dilution, 18 hours at 35° C.
[8] = strain GC 4551, broth dilution, 18 hours at 35° C.
[9] = strain GC 6257, broth dilution, 18 hours at 35° C.

CC(c1ccccc1)C1NC(=O)CNC(=O)C(CO)NC(=O)C(C(O)C2CNC(=N)N2C2OC(CO)C(O)C(O)C2O)NC(=O)C(C(O)C2CNC(=N)N2)NC(=O)C(Cc2ccc(OC3OC(CO)C(OC4OC5COC(CC67CC8CC(CC(C8)C6)C7)OC5C(O)C4O)C(O)C3O)cc2)NC1=O (stereo not shown) [Example 129]
1 µg/mL: MIC Coagulase Negative Staphylococcus (GC 4548) (Staphylococcus sp.; [1]) | MIC Coagulase Negative Staphylococcus (GC 4549) (Staphylococcus sp.; [1]) | MIC Coagulase Negative Staphylococcus (GC 6257) (Staphylococcus sp.; [1]) | MIC Coagulase Negative Staphylococcus (GC 4548) (Staphylococcus sp.; [6]) | MIC Coagulase Negative Staphylococcus (GC 4549) (Staphylococcus sp.; [7]) | MIC Coagulase Negative Staphylococcus (GC 6257) (Staphylococcus sp.; [9])
4 µg/mL: MIC Coagulase Negative Staphylococcus (GC 4551) (Staphylococcus sp.; [1]) | MIC Staphylococcus aureus (ATCC 29213) (Staphylococcus sp.) | MIC Staphylococcus aureus (ATCC 29213) (Staphylococcus sp.; [2]) | MIC Coagulase Negative Staphylococcus (GC 4551) (Staphylococcus sp.; [8])
<0.06 µg/mL: MIC Streptococcus agalactiae (GC 4564) (Streptococcus sp.) | MIC Streptococcus pneumoniae (GC 1894) (Streptococcus sp.) | MIC Streptococcus pneumoniae (GC 4565) (Streptococcus sp.) | MIC Streptococcus pneumonine (ATCC 6301) (Streptococcus sp.) | MIC Streptococcus pyogenes (GC 4563) (Streptococcus sp.)
32 µg/mL: MIC Escherichia coli (ATCC 25922) (Escherichia coli) | MIC Escherichia coli (GC 4559) (Escherichia coli)
2 µg/mL: MIC Enterococccus avium (GC 4558) (Enterococcus sp.) | MIC Enterococccus faecalis (ATCC 29212) (Enterococcus sp.) | MIC Enterococccus faecalis (GC 2691) (Enterococcus sp.) | MIC Enterococccus faecalis (GC 3059) (Enterococcus sp.) | MIC Enterococccus faecalis (GC 4552) (Enterococcus sp.) | MIC Enterococccus faecalis (GC 4553) (Enterococcus sp.) | MIC Enterococccus faecalis (GC 4554) (Enterococcus sp.) | MIC Enterococccus faecalis (GC 6189) (Enterococcus sp.) | MIC Enterococccus faecium (GC 2243) (Enterococcus sp.) | MIC Enterococccus faecium (GC 4556) (Enterococcus sp.) | MIC Enterococccus faecium (GC 4557) (Enterococcus sp.) | MIC Enterococcus faecalis (GC 2242) (Enterococcus sp.) | MIC Escherichia coli (GC 4560) (Escherichia coli) | MIC Coagulase Negative Staphylococcus (GC 4547) (Staphylococcus sp.; [1]) | MIC Staphylococcus aureus-SMITH (GC 4543) (Staphylococcus sp.; [1]) | MIC Staphylococcus haemolyticus (GC 4546) (Staphylococcus sp.; [1]) | MIC Staphylococcus aureus (GC 1131) (Staphylococcus sp.) | MIC Staphylococcus aureus (GC 1131) (Staphylococcus sp.; [2]) | MIC Staphylococcus aureus (GC 3051) (Staphylococcus sp.) | MIC Staphylococcus aureus (GC 3051) (Staphylococcus sp.; [2]) | MIC Staphylococcus aureus (GC 3053) (Staphylococcus sp.) | MIC Staphylococcus aureus (GC 3053) (Staphylococcus sp.; [2]) | MIC Staphylococcus aureus (GC 4541) (Staphylococcus sp.) | MIC Staphylococcus aureus (GC 4541) (Staphylococcus sp.; [2]) | MIC Staphylococcus aureus (GC 4542) (Staphylococcus sp.) | MIC Staphylococcus aureus (GC 4542) (Staphylococcus sp.; [2]) | MIC Staphylococcus aureus-SMITH (GC 4543) (Staphylococcus sp.; [3]) | MIC Staphylococcus aureus (GC 4544) (Staphylococcus sp.) | MIC Staphylococcus aureus (GC 4544) (Staphylococcus sp.; [2]) | MIC Staphylococcus aureus (GC 4545) (Staphylococcus sp.) | MIC Staphylococcus aureus (GC 4545) (Staphylococcus sp.; [2]) | MIC Staphylococcus haemolyticus (GC 4546) (Staphylococcus sp.; [4]) | MIC Coagulase Negative Staphylococcus (GC 4547) (Staphylococcus sp.; [5])

COC1CCC2(C)C(CCC3C2CCC2(C)C(C(C)CCC4OCC5OC(OC6C(CO)OC(Oc7ccc(CC8NC(=O)C(C(C)c9ccccc9)NC(=O)CNC(=O)C(CO)NC(=O)C(C(O)C9CNC(=N)N9C9OC(CO)C(O)C(O)C9O)NC(=O)C(C(O)C9CNC(=N)N9)NC8=O)cc7)C(O)C6O)C(O)C(O)C5O4)CCC32)C1 (stereo not drawn) [Example 130, Cyclo[glycyl-β-methylphenylalanyl-O-[4-O-[4,6-O-(3-methoxycholan-24-ylidene)hexopyranosyl]hexopyranosyl]tyrosyl-3-(2-iminoimidazolidin-4-yl)seryl-3-(3-hexopyranosyl-2-iminoimidazolidin-4-yl)serylseryl]]
4 µg/mL: MIC Streptococcus pneumoniae (GC 4565) (Streptococcus sp.)
1 µg/mL: MIC Streptococcus pneumoniae (GC 1894) (Streptococcus sp.)
>64 µg/mL: MIC Escherichia coli (ATCC 25922) (Escherichia coli) | MIC Escherichia coli (GC 4559) (Escherichia coli)
64 µg/mL: MIC Enterococccus faecalis (GC 3059) (Enterococcus sp.) | MIC Enterococccus faecium (GC 4556) (Enterococcus sp.) | MIC Escherichia coli (GC 4560) (Escherichia coli)
16 µg/mL: MIC Enterococccus avium (GC 4558) (Enterococcus sp.) | MIC Coagulase Negative Staphylococcus (GC 4549) (Staphylococcus sp.; [1]) | MIC Coagulase Negative Staphylococcus (GC 4549) (Staphylococcus sp.; [7]) | MIC Streptococcus pyogenes (GC 4563) (Streptococcus sp.)
32 µg/mL: MIC Enterococccus faecalis (ATCC 29212) (Enterococcus sp.) | MIC Enterococccus faecalis (GC 2691) (Enterococcus sp.) | MIC Enterococccus faecalis (GC 4552) (Enterococcus sp.) | MIC Enterococccus faecalis (GC 4554) (Enterococcus sp.) | MIC Enterococccus faecalis (GC 6189) (Enterococcus sp.) | MIC Enterococccus faecium (GC 4557) (Enterococcus sp.) | MIC Enterococcus faecalis (GC 2242) (Enterococcus sp.) | MIC Coagulase Negative Staphylococcus (GC 4547) (Staphylococcus sp.; [1]) | MIC Coagulase Negative Staphylococcus (GC 4548) (Staphylococcus sp.; [1]) | MIC Coagulase Negative Staphylococcus (GC 4551) (Staphylococcus sp.; [1]) | MIC Coagulase Negative Staphylococcus (GC 6257) (Staphylococcus sp.; [1]) | MIC Staphylococcus aureus-SMITH (GC 4543) (Staphylococcus sp.; [1]) | MIC Staphylococcus haemolyticus (GC 4546) (Staphylococcus sp.; [1]) | MIC Staphylococcus aureus (ATCC 29213) (Staphylococcus sp.) | MIC Staphylococcus aureus (ATCC 29213) (Staphylococcus sp.; [2]) | MIC Staphylococcus aureus (GC 1131) (Staphylococcus sp.) | MIC Staphylococcus aureus (GC 1131) (Staphylococcus sp.; [2]) | MIC Staphylococcus aureus (GC 3051) (Staphylococcus sp.) | MIC Staphylococcus aureus (GC 3051) (Staphylococcus sp.; [2]) | MIC Staphylococcus aureus (GC 3053) (Staphylococcus sp.) | MIC Staphylococcus aureus (GC 3053) (Staphylococcus sp.; [2]) | MIC Staphylococcus aureus (GC 4541) (Staphylococcus sp.) | MIC Staphylococcus aureus (GC 4541) (Staphylococcus sp.; [2]) | MIC Staphylococcus aureus (GC 4542) (Staphylococcus sp.) | MIC Staphylococcus aureus (GC 4542) (Staphylococcus sp.; [2]) | MIC Staphylococcus aureus-SMITH (GC 4543) (Staphylococcus sp.; [3]) | MIC Staphylococcus aureus (GC 4544) (Staphylococcus sp.) | MIC Staphylococcus aureus (GC 4544) (Staphylococcus sp.; [2]) | MIC Staphylococcus aureus (GC 4545) (Staphylococcus sp.) | MIC Staphylococcus aureus (GC 4545) (Staphylococcus sp.; [2]) | MIC Staphylococcus haemolyticus (GC 4546) (Staphylococcus sp.; [4]) | MIC Coagulase Negative Staphylococcus (GC 4547) (Staphylococcus sp.; [5]) | MIC Coagulase Negative Staphylococcus (GC 4548) (Staphylococcus sp.; [6]) | MIC Coagulase Negative Staphylococcus (GC 4551) (Staphylococcus sp.; [8]) | MIC Coagulase Negative Staphylococcus (GC 6257) (Staphylococcus sp.; [9])
8 µg/mL: MIC Enterococccus faecalis (GC 4553) (Enterococcus sp.) | MIC Enterococccus faecium (GC 2243) (Enterococcus sp.) | MIC Streptococcus agalactiae (GC 4564) (Streptococcus sp.) | MIC Streptococcus pneumonine (ATCC 6301) (Streptococcus sp.)
